± gives the standard deviation of the averaged measurements.
Assays:
Assay in all cases: level (log10 ratio to DMSO vehicle control); higher = higher biomarker level / cell amount than vehicle control
Conditions in all cases: in DMSO
1-(Perfluorohexyl)octane = compound: CCCCCCCCC(F)(F)C(F)(F)C(F)(F)C(F)(F)C(F)(F)C(F)(F)F [1-(Perfluorohexyl)octane]
Procedure: (§1)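 BioMAP Diversity Plus panel of 12 human primary cell co-culture systems (3C, 4H, LPS, SAg, BT, BF4T, BE3C, CASM3C, HDF3CGF, KF3CT, MyoF, Mphg). Compounds were added 1 h before stimulation and left for 24 h (MyoF 48 h; BT 72 h for soluble read-outs or 6 d for IgG). Biomarkers were read by ELISA, cytotoxicity by SRB, PBMC viability and proliferation by Alamar Blue. Each well value was divided by the mean of 8 DMSO control wells on the same plate and log10 transformed; duplicate blinded samples were tested at 4 concentrations.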

[1] = compound: O=C(O)C(F)(F)OC(F)(F)C(F)(F)OC(F)(F)C(F)(F)C(F)(F)C(F)(F)F [Perfluoro-3,6-dioxadecanoic acid]
Procedure: as §1

Perfluorohexanoic acid = compound: O=C(O)C(F)(F)C(F)(F)C(F)(F)C(F)(F)C(F)(F)F [Perfluorohexanoic acid]
Procedure: as §1

[2] = compound: O=P(O)(O)CCC(F)(F)C(F)(F)C(F)(F)C(F)(F)C(F)(F)C(F)(F)C(F)(F)C(F)(F)F [((Perfluorooctyl)ethyl)phosphonic acid]
Procedure: as §1

[3] = compound: O=S(=O)(O)C(F)(F)C(F)(F)C(F)(F)C(F)(F)C(F)(F)C(F)(F)C(F)(F)C(F)(F)F [Potassium perfluorooctanesulfonate]
Procedure: as §1

[4] = compound: C=C(C)C(=O)OCC(F)(F)C(F)(F)C(F)(F)C(F)(F)C(F)(F)C(F)(F)C(F)(F)F
Procedure: as §1

[5] = compound: OCC(F)(F)C(F)(F)C(F)(F)C(F)(F)C(F)(F)C(F)F [1H,1H,7H-Dodecafluoro-1-heptanol]
Procedure: as §1

Test System	level (log10) (1-(Perfluorohexyl)octane; 6700 nM)	level (log10) (1-(Perfluorohexyl)octane; 20000 nM)	level (log10) ([1]; 6700 nM)	level (log10) ([1]; 20000 nM)	level (log10) ([1]; 60000 nM)	level (log10) (Perfluorohexanoic acid; 6700 nM)	level (log10) (Perfluorohexanoic acid; 20000 nM)	level (log10) (Perfluorohexanoic acid; 60000 nM)	level (log10) ([2]; 6700 nM)	level (log10) ([2]; 20000 nM)	level (log10) ([2]; 60000 nM)	level (log10) ([3]; 6700 nM)	level (log10) ([3]; 20000 nM)	level (log10) ([3]; 60000 nM)	level (log10) ([4]; 6700 nM)	level (log10) ([4]; 20000 nM)	level (log10) ([5]; 6700 nM)	level (log10) ([5]; 20000 nM)	level (log10) ([5]; 60000 nM)
3C:CD87/uPAR	-0.0145 ± 0.013	-0.0075 ± 0.019	0.0065 ± 0.013	-0.0145 ± 0.011	-0.083 ± 0.058	-0.0065 ± 0.0035	-0.0115 ± 0.00071	-0.01 ± 0.0099	0.0455 ± 0.043	0.071 ± 0.025	0.0885 ± 0.059	-0.0065 ± 0.076	0.002 ± 0.017	0.015 ± 0.048	-0.0235 ± 0.054	-0.015 ± 0.048	0.023 ± 0.0028	0.002 ± 0.0099	-0.0045 ± 0.012
3C:CXCL8/IL-8	-0.005 ± 0.0028	0.0005 ± 0.019	-0.006	-0.0025 ± 0.0064	0.0305 ± 0.013	-0.006 ± 0.0042	0.005 ± 0.0057	0.0635 ± 0.037	0.0315 ± 0.019	0.03 ± 0.018	0.0685 ± 0.0092	0.0295 ± 0.044	0.027 ± 0.02	0.0555 ± 0.0064	-0.0085 ± 0.032	0.03 ± 0.014	0.0125 ± 0.032	0.0115 ± 0.021	0.0265 ± 0.0064
3C:CXCL9/MIG	0.009 ± 0.023	0.017 ± 0.016	-0.015 ± 0.02	-0.0185 ± 0.019	-0.002 ± 0.017	-0.0065 ± 0.012	-0.0045 ± 0.00071	0.0025 ± 0.012	0.006 ± 0.0057	-0.0045 ± 0.005	0.0185 ± 0.0064	0.0085 ± 0.0092	-0.003 ± 0.0042	0.013 ± 0.013	-0.001 ± 0.017	0.015 ± 0.0099	0.0065 ± 0.0078	-0.0005 ± 0.015	-0.0015 ± 0.0021
3C:HLA-DR	0.028 ± 0.03	0.0205 ± 0.019	0.0345 ± 0.04	0.021 ± 0.044	0.016 ± 0.071	0.002 ± 0.0042	0.004 ± 0.014	-0.002 ± 0.0085	0.005 ± 0.0085	0.001 ± 0.0042	-0.0285 ± 0.023	0.0075 ± 0.0092	0.0075 ± 0.0021	0.0215 ± 0.0064	0.0085 ± 0.011	-0.0005 ± 0.019	0.008 ± 0.018	-0.0055 ± 0.016	-0.0105 ± 0.013
3C:Proliferation	-0.0125 ± 0.06	-0.0035 ± 0.012	-0.0105 ± 0.0035	0.0325 ± 0.022	-0.369 ± 0.13	-0.0055 ± 0.012	-0.006 ± 0.0028	-0.01 ± 0.04	-0.0505 ± 0.019	-0.172 ± 0.071	-0.481 ± 0.18	-0.042 ± 0.035	-0.0165 ± 0.061	-0.0445 ± 0.0092	-0.0365 ± 0.039	-0.0595 ± 0.037	-0.0365 ± 0.091	-0.0885 ± 0.07	-0.034 ± 0.045
3C:SRB	0.004 ± 0.021	-0.005 ± 0.018	-0.016 ± 0.0071	-0.0055 ± 0.019	-0.149 ± 0.074	-0.0065 ± 0.0078	-0.011 ± 0.0057	-0.001 ± 0.0028	0.01 ± 0.016	0.001 ± 0.016	-0.078 ± 0.045	0.0105 ± 0.025	-0.0195 ± 0.033	-0.045 ± 0.042	0.0095 ± 0.015	-0.0105 ± 0.022	-0.005 ± 0.0071	-0.006 ± 0.0071	-0.0025 ± 0.00071
4H:CCL2/MCP-1	-0.0525 ± 0.019	-0.0495 ± 0.021	-0.0225 ± 0.0092	-0.0425 ± 0.011	-0.093 ± 0.14	-0.0105 ± 0.00071	-0.027 ± 0.0071	0.012 ± 0.021	-0.01 ± 0.0042	-0.0135 ± 0.022	0.004 ± 0.042	0.0095 ± 0.023	-0.0305 ± 0.0064	-0.0215 ± 0.025	-0.0415 ± 0.0092	-0.005 ± 0.061	-0.0365 ± 0.016	-0.028 ± 0.0085	0.0135 ± 0.093
4H:CCL26/Eotaxin-3	-0.0025 ± 0.0021	0.004 ± 0.021	0.0145 ± 0.005	-0.0035 ± 0.039	0.032 ± 0.048	0.0005 ± 0.005	-0.004 ± 0.0099	-0.015 ± 0.0071	-0.011 ± 0.0085	-0.025 ± 0.0057	-0.108 ± 0.033	0.0085 ± 0.015	-0.0495 ± 0.021	-0.0665 ± 0.037	0.0385 ± 0.043	0.0315 ± 0.047	-0.0075 ± 0.0078	-0.023 ± 0.0042	-0.0155 ± 0.022
4H:CD62P/P-selectin	0.0245 ± 0.039	-0.007 ± 0.016	0.015 ± 0.09	0.0205 ± 0.066	0.0165 ± 0.013	0.0235 ± 0.064	0.0555 ± 0.032	0.0255 ± 0.028	-0.0285 ± 0.019	-0.0235 ± 0.015	-0.126 ± 0.022	0.0375 ± 0.015	0.085 ± 0.0042	0.086 ± 0.027	-0.0205 ± 0.076	-0.0315 ± 0.063	-0.003 ± 0.078	0.051 ± 0.067	0.032 ± 0.016
4H:CD87/uPAR	0.027 ± 0.027	0.0155 ± 0.015	-0.004 ± 0.0099	-0.004 ± 0.0085	-0.0175 ± 0.037	0.0025 ± 0.042	-0.002 ± 0.011	0.0205 ± 0.039	0.018 ± 0.058	-0.003 ± 0.024	0.102 ± 0.0064	0.0655 ± 0.044	0.037 ± 0.033	0.082 ± 0.058	-0.019 ± 0.025	-0.0015 ± 0.028	0.016 ± 0.014	0.001 ± 0.014	-0.019 ± 0.031
4H:CD106/VCAM-1	0.011 ± 0.04	-0.005	-0.0095 ± 0.018	-0.0195 ± 0.022	-0.039 ± 0.0099	-0.006 ± 0.028	0.0095 ± 0.00071	0.041 ± 0.045	0.011 ± 0.0099	-0.0095 ± 0.016	-0.002 ± 0.0028	0.0085 ± 0.028	-0.004 ± 0.016	-0.0095 ± 0.023	-0.0205 ± 0.00071	0.0005 ± 0.021	0.009 ± 0.034	-0.016 ± 0.0085	-0.0125 ± 0.0092
4H:SRB	0.0035 ± 0.019	-0.002 ± 0.0042	-0.005 ± 0.018	-0.002 ± 0.0057	-0.065 ± 0.041	-0.002 ± 0.0057	-0.0105 ± 0.00071	0.0045 ± 0.015	-0.0005 ± 0.0064	0.0025 ± 0.022	-0.055 ± 0.052	-0.0105 ± 0.011	0.004 ± 0.024	-0.0095 ± 0.023	0.0005 ± 0.029	-0.0035 ± 0.018	-0.0055 ± 0.028	-0.0215 ± 0.012	-0.0075 ± 0.029
4H:VEGFR2	0.0045 ± 0.022	0.0245 ± 0.0021	-0.035 ± 0.065	-0.0105 ± 0.035	-0.0755 ± 0.036	-0.003 ± 0.021	-0.009 ± 0.014	-0.001 ± 0.024	-0.016 ± 0.033	-0.024 ± 0.035	0.007 ± 0.0057	0.0245 ± 0.0021	0.01 ± 0.024	0.027 ± 0.0099	0.0165 ± 0.0064	0.0365 ± 0.05	-0.011 ± 0.044	0.0075 ± 0.061	0.014 ± 0.03
BE3C:CD54/ICAM-1	0.0045 ± 0.011	-0.0025 ± 0.0021	-0.0105 ± 0.0021	-0.024 ± 0.013	0.008 ± 0.0057	0.0065 ± 0.00071	-0.0145 ± 0.0064	-0.014 ± 0.013	-0.0275 ± 0.00071	-0.024	0.0045 ± 0.012	0.027 ± 0.0028	0.074 ± 0.024	0.0575 ± 0.0064	0.007 ± 0.0014	0.006 ± 0.0085	0.0205 ± 0.029	0.01 ± 0.027	0.0145 ± 0.012
BE3C:CD87/uPAR	0.0085 ± 0.00071	0.017 ± 0.0099	0.018 ± 0.0014	0.0455 ± 0.025	0.102 ± 0.0099	-0.002 ± 0.0085	-0.0105 ± 0.00071	0.0205 ± 0.00071	0.0235 ± 0.025	0.04 ± 0.035	0.079 ± 0.038	0.0335 ± 0.022	0.081 ± 0.054	0.14 ± 0.025	0.0015 ± 0.016	-0.004 ± 0.023	0.018 ± 0.033	0.011 ± 0.0028	0.013 ± 0.011
